Our source for the mutagenic call values is PubChem BioAssay AID1259407 (Chemical Carcinogenesis Research Information System (CCRIS), 2018).

The test system of this data set is CCRIS mutagenicity, Ames/micronucleus/aberration tests. Description: CCRIS mutagenicity studies.
Where [1] appears, read: Test System: AMES SALMONELLA TYPHIMURIUM, Strain/Indicator: TA98, Metabolic Activation: NONE, Method: PREINCUBATION
The mark [2] stands for this setting: Test System: AMES SALMONELLA TYPHIMURIUM, Strain/Indicator: TA100, Metabolic Activation: NONE, Method: PREINCUBATION

Calls of active or inactive are those of the source. No rule for the calls is given here.

Take `O=Cc1c(Cl)cccc1Cl`: the mutagenic call (Test System: AMES SALMONELLA TYPHIMURIUM, Strain/Indicator: TA97, Metabolic Activation: HAMSTER, LIVER, S-9, AROCLOR 1254 (10%), Method: PREINCUBATION) is “inactive; negative”; the mutagenic call (Test System: AMES SALMONELLA TYPHIMURIUM, Strain/Indicator: TA97, Metabolic Activation: HAMSTER, LIVER, S-9, AROCLOR 1254 (30%), Method: PREINCUBATION) is “inactive; negative”; the mutagenic call (Test System: AMES SALMONELLA TYPHIMURIUM, Strain/Indicator: TA97, Metabolic Activation: NONE, Method: PREINCUBATION) was “inactive; negative”; the mutagenic call (Test System: AMES SALMONELLA TYPHIMURIUM, Strain/Indicator: TA97, Metabolic Activation: RAT, LIVER, S-9, AROCLOR 1254 (10%), Method: PREINCUBATION) is “inactive; negative”; the mutagenic call (Test System: AMES SALMONELLA TYPHIMURIUM, Strain/Indicator: TA97, Metabolic Activation: RAT, LIVER, S-9, AROCLOR 1254 (30%), Method: PREINCUBATION) is “inactive; negative”; the mutagenic call (Test System: AMES SALMONELLA TYPHIMURIUM, Strain/Indicator: TA98, Metabolic Activation: HAMSTER, LIVER, S-9, AROCLOR 1254 (10%), Method: PREINCUBATION) is “inactive; negative”. Moreover, the mutagenic call runs as follows: (Test System: AMES SALMONELLA TYPHIMURIUM, Strain/Indicator: TA98, Metabolic Activation: HAMSTER, LIVER, S-9, AROCLOR 1254 (30%), Method: PREINCUBATION) “inactive; negative”; under setting [1], “inactive; negative”; (Test System: AMES SALMONELLA TYPHIMURIUM, Strain/Indicator: TA98, Metabolic Activation: RAT LIVER S-9 PCB, Method: PREINCUBATION) “inactive; negative”; (Test System: AMES SALMONELLA TYPHIMURIUM, Strain/Indicator: TA98, Metabolic Activation: RAT, LIVER, S-9, AROCLOR 1254 (10%), Method: PREINCUBATION) “inactive; negative”; (Test System: AMES SALMONELLA TYPHIMURIUM, Strain/Indicator: TA98, Metabolic Activation: RAT, LIVER, S-9, AROCLOR 1254 (30%), Method: PREINCUBATION) “inactive; negative”; (Test System: AMES SALMONELLA TYPHIMURIUM, Strain/Indicator: TA100, Metabolic Activation: HAMSTER, LIVER, S-9, AROCLOR 1254 (10%), Method: PREINCUBATION) “inactive; negative”. Moreover, the mutagenic call is, setting by setting: (Test System: AMES SALMONELLA TYPHIMURIUM, Strain/Indicator: TA100, Metabolic Activation: HAMSTER, LIVER, S-9, AROCLOR 1254 (30%), Method: PREINCUBATION) “inactive; negative”; under setting [2], “inactive; negative”; (Test System: AMES SALMONELLA TYPHIMURIUM, Strain/Indicator: TA100, Metabolic Activation: RAT LIVER S-9, PCB, Method: PREINCUBATION) “inactive; negative”; (Test System: AMES SALMONELLA TYPHIMURIUM, Strain/Indicator: TA100, Metabolic Activation: RAT, LIVER, S-9, AROCLOR 1254 (10%), Method: PREINCUBATION) “inactive; negative”; (Test System: AMES SALMONELLA TYPHIMURIUM, Strain/Indicator: TA100, Metabolic Activation: RAT, LIVER, S-9, AROCLOR 1254 (30%), Method: PREINCUBATION) “inactive; negative”; (Test System: AMES SALMONELLA TYPHIMURIUM, Strain/Indicator: TA104, Metabolic Activation: HAMSTER, LIVER, S-9, AROCLOR 1254 (10%), Method: PREINCUBATION) “inactive; negative”. Besides, the mutagenic call is, setting by setting: (Test System: AMES SALMONELLA TYPHIMURIUM, Strain/Indicator: TA104, Metabolic Activation: HAMSTER, LIVER, S-9, AROCLOR 1254 (30%), Method: PREINCUBATION) “inactive; negative”; (Test System: AMES SALMONELLA TYPHIMURIUM, Strain/Indicator: TA104, Metabolic Activation: NONE, Method: PREINCUBATION) “inactive; negative”; (Test System: AMES SALMONELLA TYPHIMURIUM, Strain/Indicator: TA104, Metabolic Activation: RAT LIVER S-9, PCB, Method: PREINCUBATION) “inactive; negative”; (Test System: AMES SALMONELLA TYPHIMURIUM, Strain/Indicator: TA104, Metabolic Activation: RAT, LIVER, S-9, AROCLOR 1254 (10%), Method: PREINCUBATION) “inactive; negative”; (Test System: AMES SALMONELLA TYPHIMURIUM, Strain/Indicator: TA104, Metabolic Activation: RAT, LIVER, S-9, AROCLOR 1254 (30%), Method: PREINCUBATION) “inactive; negative”; (Test System: AMES SALMONELLA TYPHIMURIUM, Strain/Indicator: TA1535, Metabolic Activation: HAMSTER, LIVER, S-9, AROCLOR 1254 (10%), Method: PREINCUBATION) “inactive; negative”. The mutagenic call by setting is: (Test System: AMES SALMONELLA TYPHIMURIUM, Strain/Indicator: TA1535, Metabolic Activation: HAMSTER, LIVER, S-9, AROCLOR 1254 (30%), Method: PREINCUBATION) “inactive; negative”; (Test System: AMES SALMONELLA TYPHIMURIUM, Strain/Indicator: TA1535, Metabolic Activation: NONE, Method: PREINCUBATION) “inactive; negative”; (Test System: AMES SALMONELLA TYPHIMURIUM, Strain/Indicator: TA1535, Metabolic Activation: RAT, LIVER, S-9, AROCLOR 1254 (10%), Method: PREINCUBATION) “inactive; negative”; (Test System: AMES SALMONELLA TYPHIMURIUM, Strain/Indicator: TA1535, Metabolic Activation: RAT, LIVER, S-9, AROCLOR 1254 (30%), Method: PREINCUBATION) “inactive; negative”; (Test System: E.COLI, Strain/Indicator: WP2 UVRA, Metabolic Activation: NONE, Method: PREINCUBATION) “inactive; negative”; (Test System: E.COLI, Strain/Indicator: WP2 UVRA, Metabolic Activation: RAT LIVER S-9, PCB, Method: PREINCUBATION) “inactive; negative”.
For the compound `Clc1ccccn1`, the mutagenic call was “inactive; negative” (Test System: AMES SALMONELLA TYPHIMURIUM, Strain/Indicator: TA97, Metabolic Activation: NONE, Method: STANDARD PLATE); “active; positive” (Test System: AMES SALMONELLA TYPHIMURIUM, Strain/Indicator: TA97, Metabolic Activation: RAT, LIVER, S-9, AROCLOR 1254, Method: STANDARD PLATE); “inactive; negative” (Test System: AMES SALMONELLA TYPHIMURIUM, Strain/Indicator: TA98, Metabolic Activation: NONE, Method: STANDARD PLATE); “active; positive” (Test System: AMES SALMONELLA TYPHIMURIUM, Strain/Indicator: TA98, Metabolic Activation: RAT, LIVER, S-9, AROCLOR 1254, Method: STANDARD PLATE); “inactive; negative” (Test System: AMES SALMONELLA TYPHIMURIUM, Strain/Indicator: TA100, Metabolic Activation: NONE, Method: STANDARD PLATE); “active; positive” (Test System: AMES SALMONELLA TYPHIMURIUM, Strain/Indicator: TA100, Metabolic Activation: RAT, LIVER, S-9, AROCLOR 1254, Method: STANDARD PLATE). Also, the mutagenic call (Test System: AMES SALMONELLA TYPHIMURIUM, Strain/Indicator: TA102, Metabolic Activation: NONE, Method: STANDARD PLATE) is “inactive; negative”; the mutagenic call (Test System: AMES SALMONELLA TYPHIMURIUM, Strain/Indicator: TA102, Metabolic Activation: RAT, LIVER, S-9, AROCLOR 1254, Method: STANDARD PLATE) is “active; positive”; the mutagenic call (Test System: MOUSE LYMPHOMA, Strain/Indicator: L5178Y (TK+/TK-), Metabolic Activation: NONE) was “active; positive”; the mutagenic call (Test System: MOUSE LYMPHOMA, Strain/Indicator: L5178Y (TK+/TK-), Metabolic Activation: RAT, LIVER, S-9, AROCLOR 1254) is “active; positive”.
Consider `[Cl][Hg].[Cl][Hg]`, for which the mutagenic call (End Point: IN VIVO MICRONUCLEUS, Test System: BONE MARROW, Species: HAMSTER, Strain/Sex: SYRIAN/MALE, Route: INTRAPERITONEAL) is “inactive; negative”.
On to `CC(C)S(=O)(=O)Cl`, for which the mutagenic call under setting [1] was “inactive; negative”; the mutagenic call (Test System: AMES SALMONELLA TYPHIMURIUM, Strain/Indicator: TA98, Metabolic Activation: RAT, LIVER, S-9, PHENOBARBITAL, Method: PREINCUBATION) is “active; positive”; the mutagenic call under setting [2] is “active; positive”; the mutagenic call (Test System: AMES SALMONELLA TYPHIMURIUM, Strain/Indicator: TA100, Metabolic Activation: RAT, LIVER, S-9, PHENOBARBITAL, Method: PREINCUBATION) is “active; positive”.
Turning to `CN(C)C(=O)/C=C/c1ccc([N+](=O)[O-])o1`, under setting [1], the mutagenic call is “active; positive”.
On to `Cc1ccc(Cl)cc1[N+](=O)[O-]`, for which the mutagenic call under setting [1] is “inactive; negative”; the mutagenic call (Test System: AMES SALMONELLA TYPHIMURIUM, Strain/Indicator: TA98, Metabolic Activation: RAT, LIVER, S-9, KANECHLOR 500, Method: PREINCUBATION) is “inactive; negative”; the mutagenic call under setting [2] was “inactive; negative”; the mutagenic call (Test System: AMES SALMONELLA TYPHIMURIUM, Strain/Indicator: TA100, Metabolic Activation: RAT, LIVER, S-9, KANECHLOR 500, Method: PREINCUBATION) was “inactive; negative”.
